Reference: patent US20230322769A1, “HETEROAROMATIC RING COMPOUND AS RET KINASE INHIBITOR, AND PREPARATION AND USE THEREOF” (JIANGSU CHIA TAI FENGHAI PHARMACEUTICAL CO., LTD., priority 2020, published 2023)
Where two headings read alike, the source gives them in different places.

Columns and labels:
FGFR3 V555M = FGFR3 V555M (Homo sapiens (Human), UniProt P22607, V555M); experiment: HTRF kinase activity assay, FGFR3 V555M; type: biochemical
Description: (§1) Activity Experiment 8: Inhibition of FGFR Family Kinases' Activity by Prepared Compounds The compounds were assayed for activity IC50 against the FGFR family kinases. Related kinases were purchased from Carna and Signalchem.
(§2) The activity assay method for the related kinases was established by homogeneous time-resolved fluorescence (HTRF), and the inhibitory activity of the compounds was determined. A 5 μL reaction mixture was prepared, comprising 1× enzymatic buffer (Cisbio, HTRF KinEASE™-TK), 5 mM MgCl2, 1 mM DTT, 1 μM TK substrate-biotin (Cisbio, HTRF KinEASE™-TK), corresponding concentrations of ATP and related kinases, and gradient concentrations of compounds.
(§3) The kinases and compounds were pre-incubated for 10 min, and then ATP and substrate were added to start the reaction. All the enzyme-catalyzed reactions were carried out at 25° C. for 40 min. After the enzyme-catalyzed reactions were completed, 5 μL of TK antibody-cryptate and streptavidin-XL665 (the reaction concentration of streptavidin-XL665 was 62.5 nM) were added to the reaction mixtures, and the mixtures were incubated at 25° C. for another 60 min.

[1] = Metabolic stability in human liver microsomes; settings: human liver microsomes, NADPH, Table 3; for microsomal CLint at 1 µM: CLint (μL/min/mg); for half-life at 1 µM: T1/2 (min)
FGFR3 = FGFR3 (Homo sapiens (Human), UniProt P22607); experiment: HTRF kinase activity assay, FGFR3; type: biochemical
FGFR3, sequence (P22607 23-806): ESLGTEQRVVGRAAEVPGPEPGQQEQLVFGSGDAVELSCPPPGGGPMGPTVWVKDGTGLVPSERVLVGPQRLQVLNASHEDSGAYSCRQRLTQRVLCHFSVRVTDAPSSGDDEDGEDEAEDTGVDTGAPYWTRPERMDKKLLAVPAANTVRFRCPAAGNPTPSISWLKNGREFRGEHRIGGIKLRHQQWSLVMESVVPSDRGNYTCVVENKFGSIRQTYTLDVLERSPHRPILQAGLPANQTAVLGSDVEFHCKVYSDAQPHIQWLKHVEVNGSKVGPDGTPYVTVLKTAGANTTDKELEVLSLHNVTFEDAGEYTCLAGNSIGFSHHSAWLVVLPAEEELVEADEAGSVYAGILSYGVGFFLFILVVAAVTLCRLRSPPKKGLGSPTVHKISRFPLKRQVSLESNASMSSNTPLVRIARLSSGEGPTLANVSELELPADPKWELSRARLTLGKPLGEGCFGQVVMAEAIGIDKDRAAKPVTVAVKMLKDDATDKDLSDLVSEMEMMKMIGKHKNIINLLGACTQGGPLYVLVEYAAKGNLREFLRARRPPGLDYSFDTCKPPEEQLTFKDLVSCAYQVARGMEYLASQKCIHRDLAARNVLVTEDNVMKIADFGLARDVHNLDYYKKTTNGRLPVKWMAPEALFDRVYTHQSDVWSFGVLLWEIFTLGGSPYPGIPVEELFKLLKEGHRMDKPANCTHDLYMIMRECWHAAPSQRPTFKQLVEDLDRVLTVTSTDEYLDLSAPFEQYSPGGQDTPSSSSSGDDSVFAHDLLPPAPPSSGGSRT
Description: as §1, §2, §3

FGFR2 V564F = FGFR2 V564F (Homo sapiens (Human), UniProt P21802, V564F); experiment: HTRF kinase activity assay, FGFR2 V564F; type: biochemical
FGFR2 V564F, sequence (P21802 22-821 V564F): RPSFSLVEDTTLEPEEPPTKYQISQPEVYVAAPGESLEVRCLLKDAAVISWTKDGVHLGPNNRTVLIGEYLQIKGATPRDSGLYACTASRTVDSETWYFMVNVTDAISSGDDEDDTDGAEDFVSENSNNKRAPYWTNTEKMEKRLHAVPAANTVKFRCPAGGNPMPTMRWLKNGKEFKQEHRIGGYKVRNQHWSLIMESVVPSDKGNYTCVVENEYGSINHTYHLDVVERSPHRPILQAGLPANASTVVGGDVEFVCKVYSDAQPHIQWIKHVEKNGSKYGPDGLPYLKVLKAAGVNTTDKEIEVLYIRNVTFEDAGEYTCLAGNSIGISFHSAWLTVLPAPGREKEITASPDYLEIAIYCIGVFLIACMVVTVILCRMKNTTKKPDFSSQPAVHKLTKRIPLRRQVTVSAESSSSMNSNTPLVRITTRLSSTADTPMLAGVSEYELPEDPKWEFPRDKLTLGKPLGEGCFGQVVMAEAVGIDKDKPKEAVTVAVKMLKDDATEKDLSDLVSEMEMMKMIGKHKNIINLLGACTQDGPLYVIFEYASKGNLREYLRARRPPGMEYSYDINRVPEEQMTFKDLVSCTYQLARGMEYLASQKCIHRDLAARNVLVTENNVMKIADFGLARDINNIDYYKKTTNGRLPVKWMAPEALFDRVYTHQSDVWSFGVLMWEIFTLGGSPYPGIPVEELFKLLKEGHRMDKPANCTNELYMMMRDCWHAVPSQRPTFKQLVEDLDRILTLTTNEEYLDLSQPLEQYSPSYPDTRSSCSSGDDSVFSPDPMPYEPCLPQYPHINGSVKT
Description: (§4) Activity Experiment 8: Inhibition of FGFR Family Kinases' Activity by Prepared Compounds The compounds were assayed for activity IC50 against the FGFR family kinases. Related kinases were purchased from Carna and Signalchem. The activity assay method for the related kinases was established by homogeneous time-resolved fluorescence (HTRF), and the inhibitory activity of the compounds was determined. […] The kinases and compounds were pre-incubated for 10 min, and then ATP and substrate were added to start the reaction. All the enzyme-catalyzed reactions were carried out at 25° C. for 40 min. After the enzyme-catalyzed reactions were completed, 5 μL of TK antibody-cryptate and streptavidin-XL665 (the reaction concentration of streptavidin-XL665 was 62.5 nM) were added to the reaction mixtures, and the mixtures were incubated at 25° C. for another 60 min.

Ba/F3 KIF5B-RET cells = experiment: Ba/F3 KIF5B-RET cell inhibition (CellTiter-Glo); type: cell-based; settings: Mus musculus, BaF3, 72 h
Description: (§5) Activity Experiment 3: Inhibition of Ba/F3 KIF5B-RET Cells by Prepared Compounds Ba/F3 KIF5B-RET, Ba/F3KIF5B-RET-V804M, Ba/F3 RET-M918T and Ba/F3 KIF5B-RET-G810R cells growing in log phase were harvested and counted using a […]. The cell viability was determined by the trypan blue exclusion method, and the cell viability was kept over 90%. The cell concentration was adjusted, and 90 μL of the cell suspension was added to a 96-well plate. The cells in the 96-well plate were incubated overnight at 37° C. with 5% CO2 and 95% humidity. Corresponding gradient concentrations of drug solutions (the maximum concentration was 1000 nM) were added to the 96-well plate inoculated with cells at 10 μL/well. Triplicate wells were set per drug concentration, and the final concentration of DMSO was 0.1%. The drug-treated cells in the 96-well plate were incubated for another 72 h at 37° C. with 5% CO2 and 95% humidity. After the drug treatment was completed, 100 μL of CellTiter-Glo reagent was added to each well. The cell plate was shaken on an orbital shaker for 5 min to lyse the cells and then let stand at room temperature for 20 min to stabilize the luminescence signals, and then the luminescence values were read. The data were analyzed using the GraphPad Prism 5.0 software. Dose-response curves were fit to the data using nonlinear S-curve regression, and IC50 was calculated from the curves.

[2] = tested on: Ba/F3 KIF5B-RET-V804M cells; experiment: Ba/F3 KIF5B-RET-V804M cell inhibition (CellTiter-Glo); type: cell-based; settings: Mus musculus, BaF3, 72 h
Description: as §5

FGFR1 V561M = FGFR1 V561M (Homo sapiens (Human), UniProt P11362, V561M); experiment: HTRF kinase activity assay, FGFR1 V561M; type: biochemical
FGFR1 V561M, sequence (P11362 22-822 V561M): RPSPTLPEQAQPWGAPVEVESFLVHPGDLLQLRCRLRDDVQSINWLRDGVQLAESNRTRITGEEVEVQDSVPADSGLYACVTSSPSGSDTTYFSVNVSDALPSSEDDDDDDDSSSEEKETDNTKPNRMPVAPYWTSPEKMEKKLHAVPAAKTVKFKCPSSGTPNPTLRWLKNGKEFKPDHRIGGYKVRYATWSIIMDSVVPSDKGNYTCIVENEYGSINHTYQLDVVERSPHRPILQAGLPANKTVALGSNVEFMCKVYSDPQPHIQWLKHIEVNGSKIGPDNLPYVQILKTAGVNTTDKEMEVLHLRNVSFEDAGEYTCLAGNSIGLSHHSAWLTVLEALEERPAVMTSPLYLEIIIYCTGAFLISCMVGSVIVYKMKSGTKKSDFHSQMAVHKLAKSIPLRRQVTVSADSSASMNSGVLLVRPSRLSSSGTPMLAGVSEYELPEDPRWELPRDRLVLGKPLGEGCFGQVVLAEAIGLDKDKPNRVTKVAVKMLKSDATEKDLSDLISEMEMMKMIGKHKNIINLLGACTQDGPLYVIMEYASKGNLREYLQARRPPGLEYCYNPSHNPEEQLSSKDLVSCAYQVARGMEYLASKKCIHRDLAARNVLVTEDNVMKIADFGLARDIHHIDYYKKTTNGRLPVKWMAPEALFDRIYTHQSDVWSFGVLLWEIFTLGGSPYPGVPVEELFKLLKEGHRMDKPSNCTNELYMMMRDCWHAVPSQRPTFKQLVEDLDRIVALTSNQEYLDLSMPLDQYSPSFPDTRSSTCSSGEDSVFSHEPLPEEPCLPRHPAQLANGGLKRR
Description: as §1, §2, §3

Ba/F3 RET-M918T cells = experiment: Ba/F3 RET-M918T cell inhibition (CellTiter-Glo); type: cell-based; settings: Mus musculus, BaF3, 72 h
Description: as §5

FGFR2 V564I = FGFR2 V564I (Homo sapiens (Human), UniProt P21802, V564I); experiment: HTRF kinase activity assay, FGFR2 V564I; type: biochemical
FGFR2 V564I, sequence (P21802 22-821 V564I): as the sequence (P21802 22-821 V564F) above, with F543I counted along it
Description: as §4

FGFR2 K641R = FGFR2 K641R (Homo sapiens (Human), UniProt P21802, K641R); experiment: HTRF kinase activity assay, FGFR2 K641R; type: biochemical
FGFR2 K641R, sequence (P21802 22-821 K641R): as the sequence (P21802 22-821 V564F) above, with F543V, K620R counted along it
Description: as §4

[3] = tested on: Ba/F3 KIF5B-RET-G810R cells; experiment: Ba/F3 KIF5B-RET-G810R cell inhibition (CellTiter-Glo); type: cell-based; settings: Mus musculus, BaF3, 72 h, maximum concentration 1000 nM
Description: as §5

FGFR1 = FGFR1 (Homo sapiens (Human), UniProt P11362); experiment: HTRF kinase activity assay, FGFR1; type: biochemical
FGFR1, sequence (P11362 22-822): as the sequence (P11362 22-822 V561M) above, with M540V counted along it
Description: as §1, §2, §3

FGFR4 = FGFR4 (Homo sapiens (Human), UniProt P22455); experiment: HTRF kinase activity assay, FGFR4; type: biochemical
FGFR4, sequence (P22455 22-802): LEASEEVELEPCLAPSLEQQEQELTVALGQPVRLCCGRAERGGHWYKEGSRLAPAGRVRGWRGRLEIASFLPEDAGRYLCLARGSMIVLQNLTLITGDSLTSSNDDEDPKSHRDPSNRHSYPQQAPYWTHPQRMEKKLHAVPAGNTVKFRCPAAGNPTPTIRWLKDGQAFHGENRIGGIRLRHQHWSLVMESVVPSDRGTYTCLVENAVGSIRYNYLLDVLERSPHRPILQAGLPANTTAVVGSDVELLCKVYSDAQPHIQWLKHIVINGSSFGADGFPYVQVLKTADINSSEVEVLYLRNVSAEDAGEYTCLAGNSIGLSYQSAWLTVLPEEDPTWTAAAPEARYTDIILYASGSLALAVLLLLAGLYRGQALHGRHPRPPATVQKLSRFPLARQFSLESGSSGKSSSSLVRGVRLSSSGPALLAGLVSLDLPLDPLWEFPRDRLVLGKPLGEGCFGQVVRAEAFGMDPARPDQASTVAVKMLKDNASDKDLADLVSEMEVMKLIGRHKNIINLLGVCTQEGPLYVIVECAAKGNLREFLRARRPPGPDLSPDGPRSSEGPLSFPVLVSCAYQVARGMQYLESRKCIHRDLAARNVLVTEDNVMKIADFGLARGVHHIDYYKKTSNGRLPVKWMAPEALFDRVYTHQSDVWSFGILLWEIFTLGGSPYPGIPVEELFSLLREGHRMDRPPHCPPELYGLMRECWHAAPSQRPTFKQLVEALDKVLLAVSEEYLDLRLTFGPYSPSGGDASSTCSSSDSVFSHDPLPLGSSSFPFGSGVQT
Description: as §1, §2, §3

FGFR3 K650E = FGFR3 K650E (Homo sapiens (Human), UniProt P22607, K650E); experiment: HTRF kinase activity assay, FGFR3 K650E; type: biochemical
FGFR3 K650E, sequence (P22607 23-806 K650E): as the sequence (P22607 23-806) above, with K628E counted along it
Description: as §1, §2, §3

[4] = Tissue distribution assay in mice; type: in vivo, mouse; settings: for concentration at 4 h: male, mouse
Description: Male NVSG mice (weighing 20-25 g) were orally administered compound 94 and Loxo-292 at a dose of 30 mg/kg. The plasma and tissue samples of the liver, the brain and the lungs and the like of the animals are collected 4 h after administration. Blood plasma collection: The whole blood was collected at about 80-100 μL in EDTA-containing EP tubes and centrifuged at 4000 g for 5 min, and then the upper plasma was collected and stored at −80° C.
Tissue collection: After the animals were euthanized, the tissues were collected and snap-frozen in liquid nitrogen, 5 mL of homogenization solution (50% acetonitrile) was added per gram of tissue. The tissues were processed into homogenates in a tissue homogenizer and stored at −80° C. The concentration of compound in the plasma and tissue samples was quantified by liquid chromatography-tandem mass spectrometry (LC-MS/MS).

FGFR2 N549H = FGFR2 N549H (Homo sapiens (Human), UniProt P21802, N549H); experiment: HTRF kinase activity assay, FGFR2 N549H; type: biochemical
FGFR2 N549H, sequence (P21802 22-821 N549H): as the sequence (P21802 22-821 V564F) above, with N528H, F543V counted along it
Description: as §4

[5] = NVSG mice, oral 30 mg/kg, 4 h after administration

FGFR3 V555M, sequence (P22607 23-806 V555M): as the sequence (P22607 23-806) above, with V533M counted along it

SMILES | IC50 (FGFR3 V555M) [nM] | microsomal CLint at 1 µM [1] [µL/min/mg] | half-life at 1 µM [1] [min] | IC50 (FGFR3) [nM] | IC50 (FGFR2 V564F) [nM] | IC50 (Ba/F3 KIF5B-RET cells) [nM] | IC50 [2] [nM] | IC50 (FGFR1 V561M) [nM] | IC50 (Ba/F3 RET-M918T cells) [nM] | IC50 (FGFR2 V564I) [nM] | IC50 (FGFR2 K641R) [nM] | IC50 [3] [nM] | IC50 (FGFR1) [nM] | IC50 (FGFR4) [nM] | IC50 (FGFR3 K650E) [nM] | IC50 (FGFR2 N549H) [nM] | also measured
[2H]C([2H])([2H])N1CCN(c2cc(-c3ccc(N4CC5CC(C4)N5Cc4ccc(OC)nc4)nc3)c3c(C#N)cnn3c2)CC1 [Compound 94] | 74.3 | 41.2 | 33.6 | 309 | 3.58 | 19.8 | 99 | 1400 | 17.1 | 45.6 | 7.39 | 464 | 301 | 595 | 36.5 | 2.19 | Concentration of compound in brain [4, 5]: 2883.99 ng/g; Concentration of compound in liver [4, 5]: 70199.89 ng/g; Concentration of compound in lung [4, 5]: 87220.49 ng/g; Concentration of compound in plasma [4, 5]: 3174.97 ng/mL; Concentration distribution in tissues of target organs of mice compared with Loxo-292 ([4]; after oral administration): higher concentration distribution
COc1ccc(CN2C3CC2CN(c2ccc(-c4cc(OCC(C)(C)O)cn5ncc(C#N)c45)cn2)C3)cn1 [Selpercatinib, selpercatinib, reference compound] | 188 | 60.4 | 22.9 | 349 | 12.9 | 8.34 | 38.4 | 1950 | 20.4 | 97.6 | 11.2 | > 1000 | 304 | 475 | 45.9 | 9.26 | concentration at 4 h ([4]; brain, NVSG mice, oral 30 mg/kg, 4 h after administration, read-out: Concentration of compound in brain): 88.3 ng/g; concentration at 4 h ([4]; liver, NVSG mice, oral 30 mg/kg, 4 h after administration, read-out: Concentration of compound in liver): 12900 ng/g; concentration at 4 h ([4]; lung, NVSG mice, oral 30 mg/kg, 4 h after administration, read-out: Concentration of compound in lung): 7190 ng/g; concentration at 4 h ([4]; plasma, NVSG mice, oral 30 mg/kg, 4 h after administration, read-out: Concentration of compound in plasma): 14600 ng/mL
